Read-outs that look alike come from different tables or passages of the source.
Legend:
cerebellar granule cells [1] = conditions: for concentration at which maximal effects on granule cell viability/lysis were observed / concentration at which significant effects on granule cell viability/lysis were initially detected: MTS reduction and LDH release, independent of culture condition (GCSF or NB-B27)
Protocol: Viability of the cerebellar granule cell culture was assessed using CellTiter 96® AQueous One Solution Cell Proliferation reagent (Promega, G3580). This colorimetric assay employs, 3-(4,5-dimethylthiazol-2-yl)-5-(3-carboxymethoxyphenyl)-2-(4-sulfophenyl)-2H-tetrazolium (MTS) and the electron coupling reagent, phenazine ethosulfate (PES). […] Briefly, prior to each MTS assay, 100 μl of media was removed from each well, transferred to new 96-well plate for subsequent LDH release analysis. To each cell containing well, 20 μl of MTS tetrazolium reagent was added to the remaining media (100 μl). Culture plates were incubated in the humidified incubator at 37° C. and in 5% CO2 for 2 hours. Following incubation the quantity of formazan product present was determined by measuring the absorbance at 490 nm using a VERSAmax® microplate reader and SOFTmax PRO software (Molecular Devices).
(§1) Granule cell cultures were seeded at an initial density of 1×10^5 cells per well and maintained in GCSF culture media for 7 day in vitro prior to toxicant exposure. On the day of treatment, L-Glutamate, tert-butyl-hydroperoxide (TBHP), hydrogen peroxide (H2O2), ionomycin (Sigma), and MK-801 (Calbiochem, San Diego) were prepared at required concentration in the appropriate media. Cultures were exposed to toxicants for 24 hours prior to viability analysis. Cultures receiving MK-801 were pretreated for 10 minutes prior to addition of L-glutamate, and negative control cultures were treated with fresh media. For dose-dependence of oxidative-induced injury H2O2 and TBHP stock solutions were serially diluted in media to 100× concentrations immediately before each experiment. The concentration of the H2O2 stock solution was determined spectrophotometrically before each experiment based on its absorbance using the equation: C=(Ab240/ε)×DF; where C is the concentration of H2O2 (mM), Ab240 is absorbance at 240 nm, ε is the extinction coefficient (0.0394 mM^−1 cm^−1), DF is the dilution factor, and the path-length of the spectrophotometer is 1 cm. Comparative analysis of granule cell viability/lyses in GCSF and NB-B27 was assessed using the MTS reduction and LDH release assays as described above.

cerebellar granule cells [2] = assay: LDH release assay of granule cell death after toxicant exposure; type: cell-based, rat
Protocol: The lactate dehydrogenase (LDH) released into the media was determined using Cyto Tox96® non-radioactive cytotoxicity assay (Promega). In this calorimetric assay, LDH converts lactate and nicotinamide adenine dinucleotide (NAD^+) to pyruvate and NADH, respectively. This initial reaction is coupled to a second reaction where diaphorase converts iodo-nitro-tetrazolium salt and NADH to a red colored formazan compound and NAD^+ respectively. Briefly, 50 μl of assay buffer was added to each 100 μl sample of media removed from each well prior to MTS analysis. Samples were then incubated in the dark for 30 minutes at room temperature, and then 50 μl of a stop solution (1M acetic acid) was added into each well and the absorbance at 490 nm was measured as above. Positive control samples of bovine heart LDH (800 units/ml; lot 11455502, Promega) were serially diluted into a final volume of 200 μl and assayed as described above.
as §1

[3] = system: non-neuronal cells in cerebellar cultures; assay: Inhibition of non-neuronal cell proliferation in primary cerebellar cultures (visual inspection, staining); type: cell-based, rat
Protocol: Based on the calculated cell numbers, cerebellar cells were serially diluted in an appropriate volume of culture media and seeded into flat-bottom 96-well tissue culture plates pre-coated with poly-L-lysine (Becton Dickinson, Bedford, Mass.). The numbers of cerebellar cells seeded ranged from 6,250 to 400,000 cells per well (0.32 cm^2) in a final volume of 200 μl. Cultures were maintained in a humidified incubator in 5% CO2 at 37° C.
After 7-30 day in vitro, cultures were washed 3 times with phosphate buffered saline (PBS) and fixed for 20-30 minutes with 4% paraformaldehyde in 0.1M sodium phosphate buffer (pH 7.4; PB). Following fixation, cells were washed 3 times with PBS, and either stained with 1% methylene blue (Sigma) in deionized water for 5 minutes and destained with deionized water or permeablized for immunostaining with 0.2% Triton X-100 in PBS. Permeablized cells were washed 3 times with PBS, incubated for 1 hour in 5% normal horse serum in PB and then incubated overnight at 4° C. with a glial fibrillary acidic protein (GFAP) antiserum (1:5000 dilution; Dako, Carpintea, Calif.). Following incubation with primary antiserum, cells were extensively washed with PBS plus 0.1% Tween-20 and immunoreactivity was visualized with NiCl/3,3′-diaminobenzidine (DAB) using the avidin-biotin-complex (ABC) method (Vector Elite-universal; Vector Laboratories, Burlingame, Calif.). […]

[4] = 400 μM H2O2, 24 hours, 7 DIV cultures in GCSF
[5] = 400 μM H2O2, 24 hours, 7 DIV cultures in NB-B27
[6] = 125 μM TBHP, 24 hours, 7 DIV cultures in GCSF
[7] = 125 μM TBHP, 24 hours, 7 DIV cultures in NB-B27

## OO [H2O2, hydrogen peroxide]
Cerebellar granule cells [1]; 100 μM H2O2, 24 hours, GCSF, single experiment n=8
  neuronal cell death (MTS reduction): Statistically significant levels of neuronal cell death
Cerebellar granule cells [1]; [4]
  MTS-reduction: 41.5±1.0 % of control
Cerebellar granule cells [1]; [5]
  MTS-reduction: 47±1.2 % of control
Cerebellar granule cells [1]; 24 hours
  concentration at which maximal effects on granule cell viability/lysis were observed: 400 µM
  concentration at which significant effects on granule cell viability/lysis were initially detected: 200 µM
Cerebellar granule cells [2]; [4]
  LDH-release: 136.9±2.8 % of control
Cerebellar granule cells [2]; [5]
  LDH-release: 125±5.0 % of control

## N[C@@H](CCC(=O)O)C(=O)O [L-glutamate, L-Glutamate]
Cerebellar granule cells [1]; 500 μM L-glutamate, 24 hours, GCSF, representative single experiment
  granule cell viability (MTS reduction): 56.8±2 % of control cultures

## C[C@]12N[C@H](Cc3ccccc31)c1ccccc12 [MK-801]
Cerebellar granule cells [1]; 10 μM MK-801 pretreatment 10 minutes, then 500 μM L-glutamate 24 hours, GCSF
  viability of cultures pretreated with antagonist prior to L-glutamate exposure (MTS reduction): not significantly different from the mock-treated control cultures

## CC(C)(C)OO [TBHP, tert-butyl-hydroperoxide]
Cerebellar granule cells [1]; [6]
  MTS-reduction: 37.9±0.8 % of control
Cerebellar granule cells [1]; [7]
  MTS-reduction: 43.7±1.9 % of control
Cerebellar granule cells [1]; 24 hours
  concentration at which maximal effects on granule cell viability/lysis were observed: 125 µM
  concentration at which significant effects on granule cell viability/lysis were initially detected: 62.5 µM
Cerebellar granule cells [2]; [6]
  LDH-release: 125.4±1.4 % of control
Cerebellar granule cells [2]; [7]
  LDH-release: 122.7±5.6 % of control

## C[C@H](CCC(=O)O)C[C@H](C)C[C@H](C)C(=O)/C=C(\O)[C@H](C)C[C@H](C)C/C=C/[C@@H](C)[C@@H](O)[C@@H](C)[C@@H](O)C[C@@H]1CC[C@@](C)([C@H]2CC[C@@](C)([C@@H](C)O)O2)O1 [ionomycin]
Cerebellar granule cells [1]; ionomycin treatment (10 nM per FIG. 6 legend), GCSF
  average maximal decrease in viability (MTS reduction): 56±5 % of control

## cytosine β-D-arabinofuranoside [AraC]
[3]; 10 μM AraC added after 24 hour in vitro, NB-B27 or GCSF
  non-neuronal cell types in cultures: less than 5%
[3]; 10 μM AraC added after 24 hours, 96-well plates, visual inspection
  cells with morphological phenotype of small cerebellar granule cell neurons: > 90%
